Like-named read-outs stand apart in the source and are kept apart here. Numbered stars: 1 amine (or outer) side, 2 acyl side, 3 side chain; on linkers, the order of the positions; unused ones are H or OH. Bridge positions count the residues as written; N and C are the ends. Square brackets hold non-standard residues; d marks the D form. Peptide text beside a SMILES is read from it. Phe(4-COOH) = N[C@@H](Cc1ccc(C(=O)O)cc1)C(=O)O; Bip = N[C@@H](Cc1ccc(-c2ccccc2)cc1)C(=O)O; Phe(4-NH2) = Nc1ccc(C[C@H](N)C(=O)O)cc1; Diglycolyl = O=C(COCC(=O)[*:2])[*:1]; d(hPhe) = N[C@H](CCc1ccccc1)C(=O)O; d2Thi = N[C@H](Cc1cccs1)C(=O)O; Suc = O=C(CCC(=O)[*:2])[*:1]; Dap = NC[C@H](N)C(=O)O
Target: T1, TNFα / TNFα receptor (TNFα R1/Fc) (Homo sapiens, UniProt P01375)
T1 construct: purchased R&D Systems
T1 sequence (P01375 77-233 limits assumed, species assumed): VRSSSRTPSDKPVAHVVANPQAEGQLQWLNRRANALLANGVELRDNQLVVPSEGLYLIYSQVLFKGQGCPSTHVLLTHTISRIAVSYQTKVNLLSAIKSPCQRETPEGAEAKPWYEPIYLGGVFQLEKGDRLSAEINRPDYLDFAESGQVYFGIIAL
Assay: Inhibition of binding of TNFα to the TNFα receptor (plate ELISA competition)
Conditions: Table 2
Procedure, shortened: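 Plates were coated with TNFα at 15 nM. Test compound and 8.33 nM receptor-Fc (PBST, 2% DMSO) were first mixed in solution for 30 min at room temperature, then transferred to the plates for another 30 min. Competition was read by absorbance at 450 nm after HRP anti-human IgG Fc detection with TMB.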

[1] = read-out: Activity (IC50, inhibition of TNFα binding to TNFα R1/Fc)

SMILES	IC50 [1] [µM]	IC50 (Activity (IC50, inhibition of TNFα binding to TNFα R1/Fc)) [µM]
N[C@H]1CNC(=O)c2ccc(cc2)C[C@@H](C(=O)O)NC(=O)[C@@H](Cc2ccccc2)NC(=O)[C@H](Cc2ccc(-c3ccccc3)cc2)NC(=O)[C@@H](CCc2ccccc2)NC1=O [Compound 265] (H-[Dap][d(hPhe)][Bip][dF][Phe(4-COOH)]-OH; lactam 1-5)	> 100	
CC(=O)N[C@H]1CNC(=O)c2ccc(cc2)C[C@@H](C(=O)O)NC(=O)[C@@H](Cc2ccccc2)NC(=O)[C@H](Cc2ccc(-c3ccccc3)cc2)NC(=O)[C@@H](CCc2ccccc2)NC1=O [Compound 266] (Ac-[Dap][d(hPhe)][Bip][dF][Phe(4-COOH)]-OH; lactam 1-5)	> 100	
O=C(O)CCC(=O)N[C@H]1CNC(=O)c2ccc(cc2)C[C@@H](C(=O)O)NC(=O)[C@@H](Cc2ccccc2)NC(=O)[C@H](Cc2ccc(-c3ccccc3)cc2)NC(=O)[C@@H](CCc2ccccc2)NC1=O [Compound 267] (Suc-[Dap][d(hPhe)][Bip][dF][Phe(4-COOH)]-OH; lactam 1-5)	> 100	
O=C(O)[C@@H]1Cc2ccc(cc2)NC(=O)[C@H](O)[C@@H](O)C(=O)N[C@H](Cc2cccs2)C(=O)N[C@@H](Cc2ccc(-c3ccccc3)cc2)C(=O)N[C@@H](Cc2ccccc2)C(=O)N1 [Compound 268]	> 100	
O=C(O)[C@@H]1Cc2ccc(cc2)NC(=O)[C@H](O)[C@@H](O)C(=O)N[C@H](Cc2cccs2)C(=O)N[C@H](Cc2ccc(-c3ccccc3)cc2)C(=O)N[C@H](Cc2ccccc2)C(=O)N1 [Compound 269]	> 100	
O=C(O)[C@@H]1Cc2ccc(cc2)NC(=O)[C@H](O)[C@@H](O)C(=O)N[C@@H](Cc2cccs2)C(=O)N[C@@H](Cc2ccc(-c3ccccc3)cc2)C(=O)N[C@H](Cc2ccccc2)C(=O)N1 [Compound 270]	> 100	
O=C(O)[C@@H]1Cc2ccc(cc2)NC(=O)[C@H](O)[C@@H](O)C(=O)N[C@@H](Cc2cccs2)C(=O)N[C@H](Cc2ccc(-c3ccccc3)cc2)C(=O)N[C@@H](Cc2ccccc2)C(=O)N1 [Compound 271]	> 100	
O=C(O)[C@@H]1Cc2ccc(cc2)NC(=O)[C@H](O)[C@@H](O)C(=O)N[C@@H](Cc2cccs2)C(=O)N[C@H](Cc2ccc(-c3ccccc3)cc2)C(=O)N[C@H](Cc2ccccc2)C(=O)N1 [Compound 272]	> 100	
O=C(O)[C@@H]1Cc2ccc(cc2)NC(=O)[C@H](O)[C@@H](O)C(=O)N[C@H](Cc2cccs2)C(=O)N[C@H](Cc2ccc(-c3ccccc3)cc2)C(=O)N[C@@H](Cc2ccccc2)C(=O)N1 [Compound 274]	> 100	
O=C1N[C@@H](C(=O)O)Cc2ccc(cc2)NC(=O)[C@H](O)[C@@H](O)C(=O)N[C@H](Cc2cccs2)C(=O)N[C@@H](Cc2ccc(-c3ccccc3)cc2)C(=O)N[C@H]1Cc1ccccc1 [Compound 275]	> 100	
O=C(O)[C@H]1Cc2ccc(cc2)NC(=O)[C@H](O)[C@@H](O)C(=O)N[C@H](Cc2cccs2)C(=O)N[C@H](Cc2ccc(-c3ccccc3)cc2)C(=O)N[C@H](Cc2ccccc2)C(=O)N1 [Compound 276]	> 100	
O=C1N[C@H](Cc2ccccc2)C(=O)N[C@@H](C(=O)O)Cc2ccc(cc2)NC(=O)[C@H](O)[C@@H](O)C(=O)N[C@@H](Cc2cccs2)C(=O)N[C@H]1Cc1ccc(-c2ccccc2)cc1 [Compound 277]	> 100	
O=C1N[C@@H](C(=O)O)Cc2ccc(cc2)NC(=O)[C@H](O)[C@@H](O)C(=O)N[C@@H](Cc2cccs2)C(=O)N[C@H](Cc2ccc(-c3ccccc3)cc2)C(=O)N[C@H]1Cc1ccccc1 [Compound 278]	> 100	
O=C1N[C@@H](C(=O)O)Cc2ccc(cc2)NC(=O)[C@H](O)[C@@H](O)C(=O)N[C@@H](Cc2cccs2)C(=O)N[C@H](Cc2ccc(-c3ccccc3)cc2)C(=O)N[C@H]1Cc1ccccc1 [Compound 279]	> 100	
O=C1N[C@@H](Cc2ccccc2)C(=O)N[C@@H](C(=O)O)Cc2ccc(cc2)NC(=O)[C@H](O)[C@@H](O)C(=O)N[C@@H](Cc2cccs2)C(=O)N[C@H]1Cc1ccc(-c2ccccc2)cc1 [Compound 280]	> 100	
O=C1N[C@@H](C(=O)O)Cc2ccc(cc2)NC(=O)[C@H](O)[C@@H](O)C(=O)N[C@H](Cc2cccs2)C(=O)N[C@H](Cc2ccc(-c3ccccc3)cc2)C(=O)N[C@H]1Cc1ccccc1 [Compound 281]	> 100	
O=C(O)[C@@H]1Cc2ccc(cc2)NC(=O)[C@H](O)[C@@H](O)C(=O)N[C@H](Cc2cccs2)C(=O)N[C@@H](Cc2ccc(-c3ccccc3)cc2)C(=O)N[C@H](Cc2ccc(F)cc2)C(=O)N1 [Compound 288]	> 100	
O=C1COc2ccc(cc2)C[C@@H](C(=O)O)NC(=O)[C@H](c2ccccc2)NC(=O)[C@H](Cc2ccc(-c3ccccc3)cc2)NC(=O)[C@H](Cc2cccs2)N1 [Compound 291]	> 100	
O=C(O)[C@@H]1Cc2ccc(cc2)NC(=O)[C@H](O)[C@@H](O)C(=O)N[C@H](Cc2cccs2)C(=O)N[C@@H](Cc2ccc(Br)cc2)C(=O)N[C@H](Cc2ccccc2)C(=O)N1 [Compound 293]	> 100	
O=C1COc2ccc(cc2)C[C@@H](C(=O)N2CCC[C@@H]2C(=O)O)NC(=O)[C@@H](CCc2ccccc2)NC(=O)[C@H](Cc2ccc(-c3ccccc3)cc2)NC(=O)[C@@H](Cc2cccs2)N1 [Compound 303]		10 to 30
O=C(O)CC[C@H](NC(=O)[C@@H]1Cc2ccc(cc2)OCC(=O)N[C@H](Cc2cccs2)C(=O)N[C@@H](Cc2ccc(-c3ccccc3)cc2)C(=O)N[C@H](CCc2ccccc2)C(=O)N1)C(=O)O [Compound 308]	> 100	
O=C1COCC(=O)N[C@H](Cc2cccs2)C(=O)N[C@@H](Cc2ccc(-c3ccccc3)cc2)C(=O)N[C@H](Cc2ccccc2)C(=O)N[C@H](C(=O)O)Cc2ccc(cc2)N1 [Compound 310] ([d2Thi][Bip][dF][Phe(4-NH2)]-OH; linker N-4 via Diglycolyl)	> 100	
O=C(O)[C@@H]1Cc2ccc(cc2)NC(=O)[C@H](O)[C@@H](O)C(=O)N[C@H](c2ccccc2)C(=O)N[C@@H](Cc2ccc(-c3ccccc3)cc2)C(=O)N[C@H](Cc2ccccc2)C(=O)N1 [Compound 312]	> 100	

Further lines, with some results ahead:

IC50 [1] [µM]	SMILES	IC50 (Activity (IC50, inhibition of TNFα binding to TNFα R1/Fc)) [µM]
< 10	O=C(O)[C@@H]1Cc2ccc(cc2)NC(=O)[C@H](O)[C@@H](O)C(=O)N[C@H](Cc2cccs2)C(=O)N[C@@H](Cc2ccc(-c3ccccc3)cc2)C(=O)N[C@H](Cc2cccs2)C(=O)N1 [Compound 283]	
10 to 30	O=C(O)[C@@H]1Cc2ccc(cc2)NC(=O)[C@H](O)[C@@H](O)C(=O)N[C@H](Cc2cccs2)C(=O)N[C@@H](Cc2ccc(-c3ccccc3)cc2)C(=O)N[C@H](Cc2ccco2)C(=O)N1 [Compound 284]	
30 to 100	N#Cc1ccccc1C[C@H]1NC(=O)[C@H](Cc2ccc(-c3ccccc3)cc2)NC(=O)[C@@H](Cc2cccs2)NC(=O)[C@H](O)[C@@H](O)C(=O)Nc2ccc(cc2)C[C@@H](C(=O)O)NC1=O [Compound 285]	
10 to 30	O=C(O)[C@@H]1Cc2ccc(cc2)NC(=O)[C@H](O)[C@@H](O)C(=O)N[C@H](Cc2cccs2)C(=O)N[C@@H](Cc2ccc(-c3ccccc3)cc2)C(=O)N[C@H](Cc2ccccc2Cl)C(=O)N1 [Compound 286]	
10 to 30	O=C(O)[C@@H]1Cc2ccc(cc2)NC(=O)[C@H](O)[C@@H](O)C(=O)N[C@H](Cc2cccs2)C(=O)N[C@@H](Cc2ccc(-c3ccccc3)cc2)C(=O)N[C@H](Cc2ccc(Cl)cc2Cl)C(=O)N1 [Compound 287]	
30 to 100	O=C1N[C@H](Cc2ccccc2)C(=O)N[C@H](C(=O)O)Cc2ccc(cc2)NC(=O)[C@H](O)[C@@H](O)C(=O)N[C@H](Cc2cccs2)C(=O)NC1c1ccc(Br)cc1 (stereo partly drawn) [Compound 294]	
10 to 30	NCCCC[C@H](NC(=O)[C@@H]1Cc2ccc(cc2)NC(=O)CCC(=O)N[C@H](CCc2ccccc2)C(=O)N[C@@H](Cc2ccc(-c3ccccc3)cc2)C(=O)N[C@H](Cc2ccccc2)C(=O)N1)C(=O)O [Compound 295] ([d(hPhe)][Bip][dF][Phe(4-NH2)]K-OH; linker N-4 via Suc)	
30 to 100	NCCCC[C@H](NC(=O)[C@@H]1Cc2ccc(cc2)NC(=O)[C@H](O)[C@@H](O)C(=O)N[C@H](Cc2cccs2)C(=O)N[C@@H](Cc2ccc(-c3ccccc3)cc2)C(=O)N[C@H](Cc2ccccc2)C(=O)N1)C(=O)O [Compound 296]	
< 10	O=C1COc2ccc(cc2)C[C@@H](C(=O)N2CCC(C(=O)O)CC2)NC(=O)[C@@H](CCc2ccccc2)NC(=O)[C@H](Cc2ccc(-c3ccccc3)cc2)NC(=O)[C@@H](Cc2cccs2)N1 [Compound 306]	
10 to 30	O=C(O)C[C@@H]1Cc2ccc(cc2)NC(=O)[C@H](O)[C@@H](O)C(=O)N[C@H](Cc2cccs2)C(=O)N[C@@H](Cc2ccc(-c3ccccc3)cc2)C(=O)N[C@H](Cc2ccccc2)C(=O)N1 [Compound 309]	
30 to 100	O=C(O)[C@@H]1Cc2ccc(cc2)NC(=O)[C@H](O)[C@@H](O)C(=O)N[C@H](Cc2cccnc2)C(=O)N[C@@H](Cc2ccc(-c3ccccc3)cc2)C(=O)N[C@H](Cc2ccccc2)C(=O)N1 [Compound 311]	
10 to 30	N#Cc1ccccc1C[C@H]1NC(=O)[C@H](O)[C@@H](O)C(=O)Nc2ccc(cc2)C[C@@H](C(=O)O)NC(=O)[C@@H](Cc2ccccc2)NC(=O)[C@H](Cc2ccc(-c3ccccc3)cc2)NC1=O [Compound 314]	
10 to 30	O=C(O)[C@@H]1Cc2ccc(cc2)NC(=O)[C@H](O)[C@@H](O)C(=O)N[C@H](Cc2ccccc2Cl)C(=O)N[C@@H](Cc2ccc(-c3ccccc3)cc2)C(=O)N[C@H](Cc2ccccc2)C(=O)N1 [Compound 315]	
10 to 30	N#Cc1cccc(C[C@H]2NC(=O)[C@H](O)[C@@H](O)C(=O)Nc3ccc(cc3)C[C@@H](C(=O)O)NC(=O)[C@@H](Cc3ccccc3)NC(=O)[C@H](Cc3ccc(-c4ccccc4)cc3)NC2=O)c1 [Compound 316]	
10 to 30	COc1cccc(C[C@H]2NC(=O)[C@H](O)[C@@H](O)C(=O)Nc3ccc(cc3)C[C@@H](C(=O)O)NC(=O)[C@@H](Cc3ccccc3)NC(=O)[C@H](Cc3ccc(-c4ccccc4)cc3)NC2=O)c1 [Compound 317]	
10 to 30	O=C1COc2ccc(cc2)C[C@@H](C(=O)NCCO)NC(=O)[C@@H](CCc2ccccc2)NC(=O)[C@H](Cc2ccc(-c3ccccc3)cc2)NC(=O)[C@@H](Cc2cccs2)N1 [Compound 322]	

Source: patent US8338565B2, “Macrocyclic compounds for inhibition of tumor necrosis factor alpha” (Ensemble Therapeutics Corporation, priority 2008, dated 2012)
